Measured values as given in patent US9517224B2, “Methods of treating patients infected with HIV and HTLV” (THE UNITED STATES OF AMERICA, AS REPRESENTED BY THE …, priority 2012, dated 2016).

Tested on: PBMC's from normal volunteers
Test: mRNA for IL-4, INF-gamma, TNF-alpha and CD69 in PBMCs from normal volunteers
Assay type: cell-based

## ionomycine
  CD69 mRNA, relative fold difference versus untreated control: 1.639 fold
  IFN-γ mRNA, relative fold difference versus untreated control: 1.608 fold
  IL-4 mRNA, relative fold difference versus untreated control: 0.716 fold
  TNF-α mRNA, relative fold difference versus untreated control: 0.657 fold
